Bridge positions count the residues as written; N and C are the ends. Square brackets hold non-standard residues; d marks the D form. Peptide text beside a SMILES is read from it. * marks the point of attachment. Phe(4-COOH) = N[C@@H](Cc1ccc(C(=O)O)cc1)C(=O)O; Bip = N[C@@H](Cc1ccc(-c2ccccc2)cc1)C(=O)O; Phe(3-CN) = N#Cc1cccc(C[C@H](N)C(=O)O)c1; Phe(3-Me) = Cc1cccc(C[C@H](N)C(=O)O)c1; Dopa = N[C@@H](Cc1ccc(O)c(O)c1)C(=O)O; Val(3-OH) = CC(C)(O)[C@H](N)C(=O)O; 4Pal = N[C@@H](Cc1ccncc1)C(=O)O; 2Thi = N[C@@H](Cc1cccs1)C(=O)O; Cha = N[C@@H](CC1CCCCC1)C(=O)O; Cit = NC(=O)NCCC[C@H](N)C(=O)O; Carboxymethyl = O=C(O)C*; NMeA = CN[C@@H](C)C(=O)O; Pra = C#CC[C@H](N)C(=O)O; dNMeA = CN[C@H](C)C(=O)O; Dab = NCC[C@H](N)C(=O)O; Nva = CCC[C@H](N)C(=O)O
target: T1, PE-labeled human PD-L1-Ig binding to Jurkat cell line over-expressing human PD-1 (Jurkat-PD-1) (Homo sapiens, UniProt Q15116); assay: Jurkat-PD-1 Cell Binding High-Content Screening Assay (CBA): Method 1; conditions: Jurkat-hPD-1 cells, PE-labeled PD-L1-Ig 20 nM final; read-out: Jurkat HPDL1 PD1 IC50 (uM) (Method 1)
T1 construct: expressed in transfected cells; host or cells: Jurkat
T1 sequence (Q15116 25-288): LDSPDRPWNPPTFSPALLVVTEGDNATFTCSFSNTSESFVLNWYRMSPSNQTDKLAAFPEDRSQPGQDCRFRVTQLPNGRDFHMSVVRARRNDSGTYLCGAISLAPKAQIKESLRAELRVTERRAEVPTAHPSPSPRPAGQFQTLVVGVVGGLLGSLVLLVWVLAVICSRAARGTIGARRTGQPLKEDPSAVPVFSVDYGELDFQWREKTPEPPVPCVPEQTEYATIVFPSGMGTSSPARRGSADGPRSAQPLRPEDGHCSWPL

SMILES	IC50
Cc1cccc(C[C@@H]2NC(=O)[C@H](CC(=O)O)NC(=O)[C@H](Cc3ccc(O)cc3)NC(=O)[C@H](CC(N)=O)NC(=O)CSC[C@@H](C(=O)N[C@@H](CCN)C(N)=O)NC(=O)[C@H](CCC(=O)O)NC(=O)[C@H](C(C)(C)O)NC(=O)[C@H](CC3CCCCC3)NC(=O)[C@H](CCN)NC(=O)[C@@H](CC(C)C)NC(=O)[C@H](C)N(C)C(=O)[C@H](CCCNC(N)=O)NC(=O)[C@H](Cc3ccc(-c4ccccc4)cc3)NC(=O)[C@H](C(C)(C)O)NC2=O)c1 [Compound 1711] ({CH2CO}-NYD[Phe(3-Me)][Val(3-OH)][Bip][Cit][NMeA][dL][Dab][Cha][Val(3-OH)]EC[Dab]-NH2; thioether N-14)	0.06 µM
CC(C)C[C@H]1NC(=O)[C@H](C)N(C)C(=O)[C@H](C(C)(C)O)NC(=O)[C@H](Cc2ccc(-c3ccccc3)cc2)NC(=O)[C@H](C(C)(C)O)NC(=O)[C@H](Cc2c[nH]c3ccccc23)NC(=O)[C@H](CC(=O)O)NC(=O)[C@H](Cc2ccc(C(=O)O)cc2)NC(=O)[C@H](Cc2ccc(OCC(=O)O)cc2)NC(=O)CSC[C@@H](C(=O)N[C@@H](CCN)C(N)=O)NC(=O)[C@H](CCC(=O)O)NC(=O)[C@H](C(C)(C)O)NC(=O)[C@H](CC2CCCCC2)NC(=O)[C@H](CCN)NC1=O [Compound 1713] ({CH2CO}-Y(Carboxymethyl)[Phe(4-COOH)]DW[Val(3-OH)][Bip][Val(3-OH)][NMeA][dL][Dab][Cha][Val(3-OH)]EC[Dab]-NH2; thioether N-14)	0.13 µM
CC(C)C[C@@H]1NC(=O)[C@H](Cc2c[nH]c3ccccc23)NC(=O)[C@H](CC(=O)O)NC(=O)[C@H](Cc2ccc(C(=O)O)cc2)NC(=O)[C@H](Cc2ccc(OCC(=O)O)cc2)NC(=O)CSC[C@@H](C(=O)N[C@H](C)C(N)=O)NC(=O)[C@H](CO)NC(=O)[C@H](C(C)(C)O)NC(=O)[C@H](CC2CCCCC2)NC(=O)[C@H](CCN)NC(=O)[C@@H](CC(C)C)NC(=O)[C@H](C)N(C)C(=O)[C@H](C(C)(C)O)NC(=O)[C@H](Cc2ccc(-c3ccccc3)cc2)NC1=O [Compound 1714] ({CH2CO}-Y(Carboxymethyl)[Phe(4-COOH)]DWL[Bip][Val(3-OH)][NMeA][dL][Dab][Cha][Val(3-OH)]SC[dA]-NH2; thioether N-14)	0.02 µM
CC(C)C[C@@H]1NC(=O)[C@H](Cc2c[nH]c3ccccc23)NC(=O)[C@H](CC(=O)O)NC(=O)[C@H](Cc2ccc(C(=O)O)cc2)NC(=O)[C@H](Cc2ccc(OCC(=O)O)cc2)NC(=O)CSC[C@@H](C(=O)N[C@H](C)C(N)=O)NC(=O)[C@H](CCC(=O)O)NC(=O)[C@H](C(C)(C)O)NC(=O)[C@H](CC2CCCCC2)NC(=O)[C@H](CCN)NC(=O)[C@@H](CC(C)C)NC(=O)[C@H](C)N(C)C(=O)[C@H](C(C)(C)O)NC(=O)[C@H](Cc2ccc(-c3ccccc3)cc2)NC1=O [Compound 1715] ({CH2CO}-Y(Carboxymethyl)[Phe(4-COOH)]DWL[Bip][Val(3-OH)][NMeA][dL][Dab][Cha][Val(3-OH)]EC[dA]-NH2; thioether N-14)	0.06 µM
CC(C)C[C@@H]1NC(=O)[C@H](Cc2c[nH]c3ccccc23)NC(=O)[C@H](CC(=O)O)NC(=O)[C@H](Cc2ccc(C(=O)O)cc2)NC(=O)[C@H](Cc2ccc(OCC(=O)O)cc2)NC(=O)CSC[C@@H](C(=O)N[C@@H](CCN)C(N)=O)NC(=O)[C@H](CCC(=O)O)NC(=O)[C@H](C(C)(C)O)NC(=O)[C@H](CC2CCCCC2)NC(=O)[C@H](CCN)NC(=O)[C@@H](CC(C)C)NC(=O)[C@H](C)N(C)C(=O)[C@H](C(C)(C)O)NC(=O)[C@H](Cc2ccc(-c3ccccc3)cc2)NC1=O [Compound 1717] ({CH2CO}-Y(Carboxymethyl)[Phe(4-COOH)]DWL[Bip][Val(3-OH)][NMeA][dL][Dab][Cha][Val(3-OH)]EC[Dab]-NH2; thioether N-14)	0.02 µM
CC(C)C[C@@H]1NC(=O)[C@H](Cc2c[nH]c3ccccc23)NC(=O)[C@H](CC(=O)O)NC(=O)[C@H](Cc2ccc(O)cc2)NC(=O)[C@H](Cc2ccccc2)NC(=O)CSC[C@@H](C(=O)NCC(N)=O)NC(=O)[C@H](CO)NC(=O)[C@H](C(C)C)NC(=O)[C@H](CC(C)C)NC(=O)[C@H](CC(N)=O)NC(=O)CNC(=O)[C@@H](C)N(C)C(=O)[C@H](C(C)C)NC(=O)[C@H](Cc2ccc(-c3ccccc3)cc2)NC1=O [Compound 1721] ({CH2CO}-FYDWL[Bip]V[dNMeA]GNLVSCG-NH2; thioether N-14)	0.24 µM
CC(C)C[C@@H]1NC(=O)[C@H](Cc2c[nH]c3ccccc23)NC(=O)[C@H](CC(=O)O)NC(=O)[C@H](Cc2cccc(C#N)c2)NC(=O)[C@H](Cc2ccccc2)NC(=O)CSC[C@@H](C(=O)N[C@@H](C)C(N)=O)NC(=O)[C@H](CO)NC(=O)[C@H](C(C)C)NC(=O)[C@H](CC(C)C)NC(=O)[C@H](CC(N)=O)NC(=O)[C@@H](C)NC(=O)[C@H](C)N(C)C(=O)[C@H](C(C)C)NC(=O)[C@H](Cc2ccc(-c3ccccc3)cc2)NC1=O [Compound 1723] ({CH2CO}-F[Phe(3-CN)]DWL[Bip]V[NMeA][dA]NLVSCA-NH2; thioether N-14)	0.01 µM
CC(C)C[C@@H]1NC(=O)[C@H](Cc2c[nH]c3ccccc23)NC(=O)[C@H](CC(=O)O)NC(=O)[C@H](Cc2ccc(O)c(O)c2)NC(=O)[C@H](Cc2ccccc2)NC(=O)CSC[C@@H](C(=O)N[C@@H](C)C(N)=O)NC(=O)[C@H](CO)NC(=O)[C@H](C(C)C)NC(=O)[C@H](CC(C)C)NC(=O)[C@H](CC(N)=O)NC(=O)[C@@H](C)NC(=O)[C@H](C)N(C)C(=O)[C@H](C(C)C)NC(=O)[C@H](Cc2ccc(-c3ccccc3)cc2)NC1=O [Compound 1724] ({CH2CO}-F[Dopa]DWL[Bip]V[NMeA][dA]NLVSCA-NH2; thioether N-14)	0.01 µM
CC(C)C[C@@H]1NC(=O)[C@H](Cc2c[nH]c3ccccc23)NC(=O)[C@H](CC(=O)O)NC(=O)[C@H](Cc2cccs2)NC(=O)[C@H](Cc2ccccc2)NC(=O)CSC[C@@H](C(=O)N[C@@H](C)C(N)=O)NC(=O)[C@H](CO)NC(=O)[C@H](C(C)C)NC(=O)[C@H](CC(C)C)NC(=O)[C@H](CC(N)=O)NC(=O)[C@@H](C)NC(=O)[C@H](C)N(C)C(=O)[C@H](C(C)C)NC(=O)[C@H](Cc2ccc(-c3ccccc3)cc2)NC1=O [Compound 1725] ({CH2CO}-F[2Thi]DWL[Bip]V[NMeA][dA]NLVSCA-NH2; thioether N-14)	0.01 µM

The next lines start with the values.

IC50	SMILES
0.11 µM	Cc1cccc(C[C@@H]2NC(=O)[C@H](CC(=O)O)NC(=O)[C@H](Cc3ccc(O)cc3)NC(=O)[C@H](CC(N)=O)NC(=O)CSC[C@@H](C(=O)N[C@H](C)C(N)=O)NC(=O)[C@H](CCC(=O)O)NC(=O)[C@H](C(C)C)NC(=O)[C@H](CC3CCCCC3)NC(=O)[C@H](CCN)NC(=O)[C@@H](CC(C)C)NC(=O)[C@H](C)N(C)C(=O)[C@H](CCCNC(N)=O)NC(=O)[C@H](Cc3ccc(-c4ccccc4)cc3)NC(=O)[C@H](C(C)(C)O)NC2=O)c1 [Compound 1710] ({CH2CO}-NYD[Phe(3-Me)][Val(3-OH)][Bip][Cit][NMeA][dL][Dab][Cha]VEC[dA]-NH2; thioether N-14)
0.24 µM	Cc1cccc(C[C@@H]2NC(=O)[C@H](CC(=O)O)NC(=O)[C@H](Cc3ccc(O)cc3)NC(=O)[C@H](CC(N)=O)NC(=O)CSC[C@@H](C(=O)N[C@H](C)C(N)=O)NC(=O)[C@H](CCC(=O)O)NC(=O)[C@H](C(C)(C)O)NC(=O)[C@H](CC3CCCCC3)NC(=O)[C@H](CCN)NC(=O)[C@@H](CC(C)C)NC(=O)[C@H](C)N(C)C(=O)[C@H](CCCNC(N)=O)NC(=O)[C@H](Cc3ccc(-c4ccccc4)cc3)NC(=O)[C@H](C(C)(C)O)NC2=O)c1 [Compound 1712] ({CH2CO}-NYD[Phe(3-Me)][Val(3-OH)][Bip][Cit][NMeA][dL][Dab][Cha][Val(3-OH)]EC[dA]-NH2; thioether N-14)
0.01 µM	CC(C)C[C@@H]1NC(=O)[C@H](Cc2c[nH]c3ccccc23)NC(=O)[C@H](CC(=O)O)NC(=O)[C@H](Cc2ccc(C(=O)O)cc2)NC(=O)[C@H](Cc2ccc(OCC(=O)O)cc2)NC(=O)CSC[C@@H](C(=O)N[C@@H](CCN)C(N)=O)NC(=O)[C@H](CO)NC(=O)[C@H](C(C)(C)O)NC(=O)[C@H](CC2CCCCC2)NC(=O)[C@H](CCN)NC(=O)[C@@H](CC(C)C)NC(=O)[C@H](C)N(C)C(=O)[C@H](C(C)(C)O)NC(=O)[C@H](Cc2ccc(-c3ccccc3)cc2)NC1=O [Compound 1716] ({CH2CO}-Y(Carboxymethyl)[Phe(4-COOH)]DWL[Bip][Val(3-OH)][NMeA][dL][Dab][Cha][Val(3-OH)]SC[Dab]-NH2; thioether N-14)
0.03 µM	C#CC[C@H](NC(=O)[C@@H](CC(N)=O)NC(=O)[C@@H]1CSCC(=O)N[C@@H](Cc2ccc(OCC(=O)O)cc2)C(=O)N[C@@H](Cc2ccc(OCC(=O)O)cc2)C(=O)N[C@@H](CC(=O)O)C(=O)N[C@@H](Cc2c[nH]c3ccccc23)C(=O)N[C@@H](C(C)C)C(=O)N[C@@H](Cc2ccc(-c3ccccc3)cc2)C(=O)N[C@@H]([C@@H](C)CC)C(=O)N(C)[C@@H](C)C(=O)N[C@H](CC(C)C)C(=O)N[C@@H](CCC)C(=O)N[C@@H](CC2CCCCC2)C(=O)N[C@@H](C(C)(C)O)C(=O)N[C@@H](CO)C(=O)N1)C(N)=O [Compound 1718] ({CH2CO}-Y(Carboxymethyl)Y(Carboxymethyl)DWV[Bip]I[NMeA][dL][Nva][Cha][Val(3-OH)]SC[dN][Pra]-NH2; thioether N-14)
0.01 µM	CC(C)C[C@@H]1NC(=O)[C@H](Cc2c[nH]c3ccccc23)NC(=O)[C@H](CC(=O)O)NC(=O)[C@H](Cc2ccc(O)cc2)NC(=O)[C@H](Cc2ccncc2)NC(=O)CSC[C@@H](C(=O)NCC(N)=O)NC(=O)[C@H](CO)NC(=O)[C@H](C(C)C)NC(=O)[C@H](CC(C)C)NC(=O)[C@H](CC(N)=O)NC(=O)[C@@H](C)NC(=O)[C@H](C)N(C)C(=O)[C@H](C(C)C)NC(=O)[C@H](Cc2ccc(-c3ccccc3)cc2)NC1=O [Compound 1722] ({CH2CO}-[4Pal]YDWL[Bip]V[NMeA][dA]NLVSCG-NH2; thioether N-14)

Source: patent publication US20240409585A1, “MACROCYCLIC IMMUNOMODULATORS” (priority 2021, published 2024)
